{"source": "paper PMC5053523", "about": "“In Vitro Antibacterial Activity of Rhodanine Derivatives against Pathogenic Clinical Isolates” (PLoS ONE, 2016)", "key": {"[1]": {"tested_on": "Pseudomonas aeruginosa", "experiment": "MIC with/without PMBN, Pseudomonas aeruginosa", "format": "cell-based", "description": "(§1) The MIC of the rhodanines and control antibiotics, in the presence of a sub-inhibitory concentration of colistin or polymixin B nonapeptide (PMBN), against Gram-negative bacteria was evaluated as described before. The antibacterial activity of the rhodanines was further investigated against E. coli SM1411Δ acrAB, a strain that is deficient in the multidrug-resistant AcrAB efflux pump, as described before."}, "[2]": {"tested_on": "MRSA USA300", "experiment": "MIC against MRSA USA300 with and without 4% human serum albumin", "format": "cell-based, Staphylococcus aureus", "details": "Staphylococcus aureus, read-out: MIC against MRSA USA300", "procedure,_shortened": "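MIC measured in tryptic soy broth spiked with 4% HSA and without it, using CLSI broth microdilution on MRSA USA300. Value reported is the lowest concentration preventing bacterial growth.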"}, "[3]": {"tested_on": "Candida albicans", "experiment": "MIC against Candida albicans", "format": "cell-based", "details": "table prints none, read-out: MIC"}, "[4]": {"tested_on": "Bacillus anthracis", "experiment": "microbe, parasite or virus in culture", "format": "cell-based"}, "[5]": {"tested_on": "Pseudomonas aeruginosa", "experiment": "MIC with/without sub-MIC colistin, Pseudomonas aeruginosa", "format": "cell-based", "description": "as §1"}, "[6]": {"tested_on": "Escherichia coli O157:H7", "experiment": "MIC with/without sub-MIC colistin, Escherichia coli O157:H7", "format": "cell-based", "description": "as §1"}, "[7]": {"tested_on": "Acinetobacter baumannii", "experiment": "Broth microdilution MIC, Acinetobacter baumannii", "format": "cell-based"}, "[8]": {"tested_on": "Klebsiella pneumoniae", "experiment": "MIC with/without sub-MIC colistin, Klebsiella pneumoniae", "format": "cell-based", "description": "as §1"}, "[9]": {"tested_on": "K. pneumoniae", "experiment": "Broth microdilution MIC, K. pneumoniae", "format": "cell-based"}, "[10]": {"tested_on": "B. licheniformis", "experiment": "Broth microdilution MIC/MBC, B. licheniformis", "format": "cell-based", "details": "Bacillus licheniformis; for MBC: read-out: MBC; for MIC: read-out: MIC"}, "[11]": {"tested_on": "Acinetobacter baumannii", "experiment": "MIC with/without sub-MIC colistin, Acinetobacter baumannii", "format": "cell-based", "description": "as §1"}, "[12]": {"tested_on": "vancomycin resistant enterococci (VRE)", "experiment": "Broth microdilution MIC50/MIC90, VRE panel", "format": "cell-based", "details": "Enterococcus, 10 VRE strains"}, "[13]": {"tested_on": "methicillin-resistant Staphylococcus aureus (MRSA)", "experiment": "Broth microdilution MIC/MBC, MRSA", "format": "cell-based"}, "[14]": {"tested_on": "Acinetobacter baumannii", "experiment": "MIC with/without PMBN, Acinetobacter baumannii", "format": "cell-based", "description": "as §1"}, "[15]": {"tested_on": "Klebsiella pneumoniae", "experiment": "MIC with/without PMBN, Klebsiella pneumoniae", "format": "cell-based", "description": "as §1"}, "[16]": {"tested_on": "Salmonella Typhimurium", "experiment": "MIC with/without sub-MIC colistin, Salmonella Typhimurium", "format": "cell-based", "description": "as §1"}, "[17]": {"details": "NCIB9375, B. licheniformis Gibson 46 (NCIB 9375) NR-2494"}, "[18]": {"details": "NRS712, B. licheniformis NRS 712 NR-2499"}, "[19]": {"details": "Acinetobacter baumannii, ATCCBAA747"}, "[20]": {"details": "Acinetobacter baumannii, ATCCBAA19606"}}, "note": "Where two headings read alike, the source gives them in different places.", "data": [{"smiles": "O=C(O)[C@H](Cc1ccccc1)N1C(=O)/C(=C/c2cccc(Cc3ccc(Cl)c(Cl)c3)c2)SC1=S", "note": "[Rh 3]", "values": [{"measurement": "MIC", "setting": "[1]; Pseudomonas aeruginosa ATCC 9721, PMBN (+) 4 μg/mL, read-out: MIC", "value": ">64", "unit": "µM"}, {"measurement": "MIC", "setting": "[1]; Pseudomonas aeruginosa, ATCC9721", "value": "> 128", "unit": "µM"}, {"measurement": "MIC", "setting": "[2]; 24 h, Media TSB + 4% HSA", "value": "> 64", "unit": "µM"}, {"measurement": "MIC", "setting": "[2]; Media TSB", "value": 8, "unit": "µM"}, {"measurement": "MIC", "setting": "[3]; ATCC10231, C. albicans ATCC 10231, unit from abstract", "value": "> 64", "unit": "µM"}, {"measurement": "MIC", "setting": "[3]; C. albicans NR 29434, unit from abstract", "value": "> 64", "unit": "µM"}, {"measurement": "MIC", "setting": "[3]; C. albicans NR 29435, unit from abstract", "value": "> 64", "unit": "µM"}, {"measurement": "MIC", "setting": "[3]; C. albicans NR29437, unit from abstract", "value": "> 64", "unit": "µM"}, {"measurement": "MIC", "setting": "[3]; C. albicans NR29438, unit from abstract", "value": "> 64", "unit": "µM"}, {"measurement": "MIC", "setting": "[3]; C. albicans NR 29446, unit from abstract", "value": 64, "unit": "µM"}, {"measurement": "MIC", "setting": "[3]; C. albicans NR 29448, unit from abstract", "value": "> 64", "unit": "µM"}, {"measurement": "MIC", "setting": "[3]; C. albicans NR 29449, unit from abstract", "value": "> 64", "unit": "µM"}, {"measurement": "MIC", "setting": "[3]; C. albicans NR 29453, unit from abstract", "value": "> 64", "unit": "µM"}, {"measurement": "MIC", "setting": "[3]; C. albicans NR 294436, unit from abstract", "value": "> 64", "unit": "µM"}, {"measurement": "MBC", "setting": "[4]; Bacillus anthracis AMES35", "value": 2, "unit": "µM"}, {"measurement": "MIC", "setting": "[4]; Bacillus anthracis AMES35", "value": 2, "unit": "µM"}, {"measurement": "MBC", "setting": "[4]; Bacillus anthracis UM23", "value": 2, "unit": "µM"}, {"measurement": "MIC", "setting": "[4]; Bacillus anthracis UM23", "value": 2, "unit": "µM"}, {"measurement": "MBC", "setting": "[4]; Bacillus anthracis Weybridge", "value": 2, "unit": "µM"}, {"measurement": "MIC", "setting": "[4]; Bacillus anthracis Weybridge", "value": 2, "unit": "µM"}, {"measurement": "MIC", "setting": "[5]; Pseudomonas aeruginosa ATCC 921, colistin (+) […], read-out: MIC", "value": ">64", "unit": "µM"}, {"measurement": "MIC", "setting": "[5]; Pseudomonas aeruginosa, ATCC921", "value": "> 128", "unit": "µM"}, {"measurement": "MIC", "setting": "[6]; Escherichia coli O157:H7 ATCC 35150, colistin (+) […], read-out: MIC", "value": ">64", "unit": "µM"}, {"measurement": "MIC", "setting": "[6]; Escherichia coli O157:H7 ATCC 700728, colistin (+) […], read-out: MIC", "value": ">64", "unit": "µM"}, {"measurement": "MIC", "setting": "[6]; Escherichia coli, ATCC35150", "value": "> 128", "unit": "µM"}, {"measurement": "MIC", "setting": "[6]; Escherichia coli, ATCC700728", "value": "> 128", "unit": "µM"}, {"measurement": "MIC", "setting": "[7]; ATCC13345", "value": "> 128", "unit": "µM"}, {"measurement": "MIC", "setting": "[7]; ATCC17786", "value": "> 128", "unit": "µM"}, {"measurement": "MIC", "setting": "[8]; Klebsiella pneumoniae ATCC BAA 2146, colistin (+) […]", "value": ">64", "unit": "µM"}, {"measurement": "MIC", "setting": "[8]; Klebsiella pneumoniae, BAA2146", "value": "> 128", "unit": "µM"}, {"measurement": "MIC", "setting": "[9]; K. pneumoniae NR-15417", "value": ">128", "unit": "µM"}, {"measurement": "MIC", "setting": "[9]; Klebsiella pneumoniae", "value": "> 128", "unit": "µM"}, {"measurement": "MBC", "setting": "[10]; [17]", "value": 2, "unit": "µM"}, {"measurement": "MIC", "setting": "[10]; [17]", "value": 2, "unit": "µM"}, {"measurement": "MBC", "setting": "[10]; [18]", "value": 4, "unit": "µM"}, {"measurement": "MIC", "setting": "[10]; [18]", "value": 4, "unit": "µM"}, {"measurement": "MIC", "setting": "[11]; Acinetobacter baumannii ATCC BAA747, colistin (+) […], read-out: MIC", "value": ">64", "unit": "µM"}, {"measurement": "MIC", "setting": "[11]; Acinetobacter baumannii ATCC BAA19606, colistin (+) […], read-out: MIC", "value": ">64", "unit": "µM"}, {"measurement": "MIC", "setting": "[11]; [19]", "value": "> 128", "unit": "µM"}, {"measurement": "MIC", "setting": "[11]; [20]", "value": "> 128", "unit": "µM"}, {"measurement": "MIC90", "setting": "[12]; VRE, read-out: MIC 90", "value": 8, "unit": "µM"}, {"measurement": "MIC50", "setting": "[12]; read-out: MIC 50", "value": 4, "unit": "µM"}, {"measurement": "MIC50", "setting": "[13]; 11 MRSA strains", "value": 8, "unit": "µM"}, {"measurement": "MIC90", "setting": "[13]; 11 MRSA strains", "value": 16, "unit": "µM"}, {"measurement": "MBC", "setting": "[13]; MRSA NRS 1", "value": 8, "unit": "µM"}, {"measurement": "MIC", "setting": "[13]; MRSA NRS 1", "value": 8, "unit": "µM"}, {"measurement": "MBC", "setting": "[13]; MRSA NRS 19", "value": 8, "unit": "µM"}, {"measurement": "MIC", "setting": "[13]; MRSA NRS 19", "value": 8, "unit": "µM"}, {"measurement": "MBC", "setting": "[13]; MRSA NRS 37", "value": 16, "unit": "µM"}, {"measurement": "MIC", "setting": "[13]; MRSA NRS 37", "value": 8, "unit": "µM"}, {"measurement": "MBC", "setting": "[13]; MRSA NRS 107", "value": 32, "unit": "µM"}, {"measurement": "MIC", "setting": "[13]; MRSA NRS 107", "value": 8, "unit": "µM"}, {"measurement": "MBC", "setting": "[13]; MRSA NRS 119", "value": 8, "unit": "µM"}, {"measurement": "MIC", "setting": "[13]; MRSA NRS 119", "value": 8, "unit": "µM"}, {"measurement": "MBC", "setting": "[13]; MRSA NRS 382", "value": 32, "unit": "µM"}, {"measurement": "MIC", "setting": "[13]; MRSA NRS 382", "value": 16, "unit": "µM"}, {"measurement": "MBC", "setting": "[13]; MRSA NRS 383", "value": 8, "unit": "µM"}, {"measurement": "MIC", "setting": "[13]; MRSA NRS 383", "value": 8, "unit": "µM"}, {"measurement": "MBC", "setting": "[13]; MRSA NRS 384", "value": 16, "unit": "µM"}, {"measurement": "MIC", "setting": "[13]; MRSA NRS 384", "value": 16, "unit": "µM"}, {"measurement": "MBC", "setting": "[13]; MRSA NRS 385", "value": 16, "unit": "µM"}, {"measurement": "MIC", "setting": "[13]; MRSA NRS 385", "value": 16, "unit": "µM"}, {"measurement": "MBC", "setting": "[13]; MRSA NRS 386", "value": 32, "unit": "µM"}, {"measurement": "MIC", "setting": "[13]; MRSA NRS 386", "value": 8, "unit": "µM"}, {"measurement": "MBC", "setting": "[13]; MRSA NRS 387", "value": 32, "unit": "µM"}, {"measurement": "MIC", "setting": "[13]; MRSA NRS 387", "value": 16, "unit": "µM"}, {"measurement": "MIC", "setting": "[14]; Acinetobacter baumannii ATCC BAA747, PMBN (+) 4 μg/mL, read-out: MIC", "value": ">64", "unit": "µM"}, {"measurement": "MIC", "setting": "[14]; Acinetobacter baumannii ATCC BAA19606, PMBN (+) 4 μg/mL, read-out: MIC", "value": ">64", "unit": "µM"}, {"measurement": "MIC", "setting": "[14]; [19]", "value": "> 128", "unit": "µM"}, {"measurement": "MIC", "setting": "[14]; [20]", "value": "> 128", "unit": "µM"}, {"measurement": "MIC", "setting": "[15]; Klebsiella pneumoniae ATCC BAA 1706, PMBN (+) 4 μg/mL", "value": ">64", "unit": "µM"}, {"measurement": "MIC", "setting": "[15]; Klebsiella pneumoniae ATCC BAA 2146, PMBN (+) 4 μg/mL", "value": ">64", "unit": "µM"}, {"measurement": "MIC", "setting": "[15]; Klebsiella pneumoniae, BAA1706", "value": "> 128", "unit": "µM"}, {"measurement": "MIC", "setting": "[15]; Klebsiella pneumoniae, BAA2146", "value": "> 128", "unit": "µM"}, {"measurement": "MIC", "setting": "[16]; Salmonella Typhimurium ATCC 700720, colistin (+) […], read-out: MIC", "value": ">64", "unit": "µM"}, {"measurement": "MIC", "setting": "[16]; Salmonella enterica, ATCC 700720 / TYPHIMURIUM", "value": "> 128", "unit": "µM"}]}]}
